{
  "source": "patent US20090088472A1",
  "about": "“Protective Agent for Neuronal Cell Comprising Amidino Derivative as Active Ingredient” (priority 2006, published 2009)",
  "key": {"trypsin": {"tested_on": "trypsin", "conditions": "stated as known; cited from earlier work"}, "[1]": {"tested_on": "retinal neuronal cells (RGC in ganglion cell layer, inner plexiform layer) damaged by NMDA", "experiment": "NMDA-induced retinal damage in rats (intravitreal administration, histology after 14 days)", "format": "in vivo", "conditions": "rat, 14 days after administration", "text": "In order to study the effect of protecting a retinal neuronal cell of a compound represented by the general formula [I] or a salt thereof, the effects of nafamostat and FUT-187, each of which is a compound represented by the general formula [I] or a salt thereof on NMDA-induced retinal damage in rats were studied. As comparative compounds, camostat (N,N-dimethylcarbamoylmethyl-4-(4-guanidinobenzoyloxy)phenylacetate methanesulfonate) represented by the following formula [II] and gabexate (ethyl-4-(6-guanidinohexanoyloxy)benzoate methanesulfonate) represented by the following formula [III] were used.\nEach of NMDA, nafamostat and FUT-187 was dissolved in distilled water, whereby an NMDA solution, a nafamostat solution, and an FUT-187 aqueous solution were obtained. Then, the solutions were appropriately mixed, whereby an aqueous solution of 4 mM NMDA and 2 mM nafamostat (hereinafter referred to as “Test liquid 1”) and an aqueous solution of 4 mM NMDA and 2 mM FUT-187 (hereinafter referred to as “Test liquid 2”) were obtained. In the same manner, an aqueous solution of 4 mM NMDA and 20 mM camostat (hereinafter referred to as “Comparative test liquid 1”) and an aqueous solution of 4 mM NMDA and 20 mM gabexate (hereinafter referred to as “Comparative test liquid 2”) were obtained. Further, by mixing the NMDA solution and distilled water, a 4 mM NMDA liquid (hereinafter referred to as “NMDA liquid”) was obtained.\nMydriasis was induced in a rat with a 0.5% (w/v) tropicamide-0.5% phenylephrine hydrochloride ophthalmic solution, and then, anesthesia was induced with 3% halothane, and then, anesthesia was maintained with 1% halothane (halothane was vaporized with 0.5 L oxygen/min and 1.5 L dinitrogen monoxide/min). Then, a 0.4% (w/v) oxybuprocaine hydrochloride ophthalmic solution was instilled to the rat to anesthetize the surface of the eyeball, and by using a 32-gauge Hamilton microsyringe, 5 μl of Test liquid 1 was intravitreally administered under an operating microscope. Further, the same procedure as above was carried out by sequentially altering Test liquid 1 into distilled water, NMDA liquid, Test liquid 2, Comparative test liquid 1 and Comparative test liquid 2, respectively. Then, 14 days after the administration, the eyeball was taken out and fixed in 2.5% glutaraldehyde-10% neutral buffered formalin for 1 day. Thereafter, the cornea and lens were excised, and the 2.5% glutaraldehyde-10% neutral buffered formalin was changed to 10% neutral buffered formalin. At a later date, dehydration was carried out, followed by paraffin embedding and slicing and pathological tissue sections (with a thickness of 3 μm) stained with hematoxylin-eosin (HE) were prepared. From 8 sections which had been prepared by slicing the specimen with an interval of 15 μm per one eye such that the optic papilla was contained, 3 sections were optionally selected. With regard to the thus selected sections, a photograph of the retina in the range of from 1 to 1.5 mm on the left or right side from the optic papilla was taken, and the number of cells in the ganglion cell layer (GCL) in the retina (RGC number) and the thickness of the inner plexiform layer (IPL) were measured. From these measured values and in accordance with Equation 1 and Equation 2, a ganglion cell death inhibition rate and an IPL thinning inhibition rate were calculated. […]"}, "[2]": {"conditions": "100 nmol/eye co-administered with 4 mM NMDA (5 μl)"}, "[3]": {"conditions": "10 nmol/eye co-administered with 4 mM NMDA (5 μl)"}, "[4]": {"conditions": "10 nmol/eye co-administered with 4 mM NMDA (5 μl), listed as nafamostat"}, "[5]": {"conditions": "10 nmol/eye co-administered with 4 mM NMDA (5 μl), listed as FUT-187"}},
  "data": [
    {"molecule": "CCOC(=O)c1ccc(OC(=O)CCCCCNC(=N)N)cc1", "note": "[Comparative test liquid 2, ethyl-4-(6-guanidinohexanoyloxy)benzoate methanesulfonate]", "values": [
      {"measurement": "trypsin inhibitory activity", "setting": "trypsin", "result": "have a trypsin inhibitory activity"},
      {"measurement": "Ganglion cell death inhibition rate", "setting": "[1]; [2]", "result": 17.8, "unit": "%"},
      {"measurement": "IPL thinning inhibition rate", "setting": "[1]; [2]", "result": 2.4, "unit": "%"}
    ]},
    {"molecule": "N=C(N)Nc1ccc(C(=O)Oc2ccc3cc(C(=N)N)ccc3c2)cc1", "note": "[Test liquid 1, 6′-amidino-2′-naphthyl-4-guanidinobenzoate dimethanesulfonate]", "values": [
      {"measurement": "trypsin inhibitory activity", "setting": "trypsin", "result": "have the same activity"},
      {"measurement": "Ganglion cell death inhibition rate", "setting": "[1]; [3]", "result": 78.8, "unit": "%"},
      {"measurement": "IPL thinning inhibition rate", "setting": "[1]; [3]", "result": 54.8, "unit": "%"},
      {"measurement": "Ganglion cell death inhibition rate", "setting": "[1]; [4]", "result": "high"},
      {"measurement": "IPL thinning inhibition rate", "setting": "[1]; [4]", "result": "high"}
    ]},
    {"molecule": "N=C(N)c1ccc2cc(OC(=O)c3ccc(NC4=NCCN4)cc3)ccc2c1", "note": "[Test liquid 2, 6′-amidino-2′-naphthyl-(4-(4,5-dihydro-1H-2-imidazolyl)amino)benzoate dimethanesulfonate]", "values": [
      {"measurement": "trypsin inhibitory activity", "setting": "trypsin", "result": "have the same activity"},
      {"measurement": "Ganglion cell death inhibition rate", "setting": "[1]; [3]", "result": 136.8, "unit": "%"},
      {"measurement": "IPL thinning inhibition rate", "setting": "[1]; [3]", "result": 63.1, "unit": "%"},
      {"measurement": "Ganglion cell death inhibition rate", "setting": "[1]; [5]", "result": "high"},
      {"measurement": "IPL thinning inhibition rate", "setting": "[1]; [5]", "result": "high"}
    ]}
  ]
}
